From article PMC12147761 (Journal of medicinal chemistry, 2025)
Where two headings read alike, the source gives them in different places.

Key:
[1] = tested on: normal and non-neoplastic cells; experiment: Cell viability panel; format: cell-based, human; details: 5 days of treatment, compared with sensitive cancer cells
Experimental: (§1) Cells were seeded in 96-well plates and incubated at 37 °C and 5% CO2. After overnight incubation, serial dilutions of tested compounds were added to the plate. The assay was tested with Cell Titer-Glo (Promega) after 5 days. The luminescence signal was detected by the Infinite M1000 Pro plate reader (Tecan), and the IC50 values were calculated by GraphPad Prism 10.

[2] = target: T1, CDK8/CycC (Homo sapiens, UniProt P49336); experiment: CDK family panel, ADP-Glo; format: biochemical
T1 construct: ICE Bioscience Inc. (assay service)
Experimental: (§2) All the kinase activity were performed using an ADP-Glo kinase assay by ICE Bioscience Inc. (Beijing, China).

[3] = target: T2, CDK14/CycY (Homo sapiens, UniProt O94921); experiment: CDK family panel, ADP-Glo; format: biochemical
T2 construct: ICE Bioscience Inc. (assay service)
Experimental: as §2

[4] = tested on: MFM223; experiment: Cell viability panel; format: cell-based; details: Homo sapiens, MFM-223, 120 h; breast cancer cells, 5 days of treatment
Experimental: as §1

[5] = tested on: CB-AGPN; experiment: Cell viability panel; format: cell-based; details: Homo sapiens, 120 h; Ewing's sarcoma cells, 5 days of treatment
Experimental: as §1

[6] = tested on: DU145; experiment: Cell viability panel; format: cell-based; details: Homo sapiens, DU-145, 120 h; prostate cancer cells, 5 days of treatment
Experimental: as §1

[7] = tested on: SK-BR-3; experiment: Cell viability panel; format: cell-based; details: Homo sapiens, SK-BR-3, 120 h; breast cancer cells, 5 days of treatment
Experimental: as §1

[8] = tested on: MDA-MD-468; experiment: Cell viability panel; format: cell-based; details: Homo sapiens, 120 h; breast cancer cells, 5 days of treatment
Experimental: as §1

[9] = tested on: CHLA10; experiment: Cell viability panel; format: cell-based; details: Homo sapiens, 120 h; Ewing's sarcoma cells, 5 days of treatment
Experimental: as §1

[10] = target: T3, CDK4/CycD1 (Homo sapiens, UniProt P11802); experiment: CDK family panel, ADP-Glo; format: biochemical
T3 construct: ICE Bioscience Inc. (assay service)
Experimental: (§3) All the kinase activity were performed using an ADP-Glo kinase assay by ICE Bioscience Inc. (Beijing, China). Kinome selectivity profiles (KINOMEscan profiling) and Kd detection were performed by Eurofins DiscoveryX Corporation (San Diego, CA, USA).

[11] = target: T4, CDK2/CycE1 (Homo sapiens, UniProt P24941); experiment: CDK family panel, ADP-Glo; format: biochemical
T4 construct: ICE Bioscience Inc. (assay service)
Experimental: as §2

[12] = target: T5, CDK3/CycE1 (Homo sapiens, UniProt Q00526); experiment: CDK family panel, ADP-Glo; format: biochemical
T5 construct: ICE Bioscience Inc. (assay service)
Experimental: as §3

[13] = tested on: VCaP cells; experiment: Cell apoptosis assay by flow cytometry; format: cell-based, human; details: YJZ5118 at 100 nM
Experimental: Cells were seeded in six-well plates and incubated for 24 h at 37 °C and 5% CO2. Cells were then treated with the indicated concentrations of the tested compounds for 48 h. The treated cells then were collected, centrifuged and washed twice by cold PBS. […] Cell samples were analyzed with flow cytometry (SH800S cell sorter, Sony Biotechnology).

[14] = target: T6, CDK19/CycC (Homo sapiens, UniProt Q9BWU1); experiment: CDK family panel, ADP-Glo; format: biochemical
T6 construct: ICE Bioscience Inc. (assay service)
Experimental: as §2

[15] = target: T7, CDK2/CycA2 (Homo sapiens, UniProt P24941); experiment: CDK family panel, ADP-Glo; format: biochemical
T7 construct: ICE Bioscience Inc. (assay service)
Experimental: as §2

[16] = target: T8, CDK15/CycY (Homo sapiens, UniProt Q96Q40); experiment: CDK family panel, ADP-Glo; format: biochemical
T8 construct: ICE Bioscience Inc. (assay service)
Experimental: as §2

[17] = tested on: VCaP prostate cancer cells; experiment: Cell proliferation assay (CellTiter-Glo), VCaP; format: cell-based, human; details: cell growth inhibition, 5 days, CellTiter-Glo
Experimental: The kinase inhibitory activities of the compounds against CDK12 and CDK13 were preliminarily evaluated using the ADP-Glo kinase assay. Cell growth inhibition was determined in VCaP prostate cancer cells, which were characterized as being sensitive to CDK12/13 inhibition.[14]
as §1

[18] = target: T9, CDK5/p35NCK (Homo sapiens, UniProt Q00535); experiment: CDK family panel, ADP-Glo; format: biochemical
T9 construct: ICE Bioscience Inc. (assay service)
Experimental: as §3

[19] = target: T10, CDK3/CycC (Homo sapiens, UniProt Q00526); experiment: CDK family panel, ADP-Glo; format: biochemical
T10 construct: ICE Bioscience Inc. (assay service)
Experimental: as §2

[20] = tested on: VCaP cells; experiment: Washout experiment, cell growth; format: cell-based, human; details: VCaP cells treated 6 h, compound removed, 5 days in compound-free media
Experimental: The previously reported reversible inhibitor 10 was included for comparison. VCaP cells were treated with the compounds for 6 h, after which the compounds were removed, and the cells were cultured in compound-free media for 5 days.

[21] = target: T11, CDK9/CycK (Homo sapiens, UniProt P50750); experiment: CDK family panel, ADP-Glo; format: biochemical
T11 construct: ICE Bioscience Inc. (assay service)
Experimental: as §2

[22] = target: T12, CDK1/CycA2 (Homo sapiens, UniProt P06493); experiment: CDK family panel, ADP-Glo; format: biochemical
T12 construct: ICE Bioscience Inc. (assay service)
Experimental: as §2

[23] = target: T13, CDK16/CycY (Homo sapiens, UniProt Q00536); experiment: CDK family panel, ADP-Glo; format: biochemical
T13 construct: ICE Bioscience Inc. (assay service)
Experimental: as §2

[24] = target: T14, CDK7/CycH/MAT1 (Homo sapiens, UniProt P50613); experiment: CDK family panel, ADP-Glo; format: biochemical
T14 construct: ICE Bioscience Inc. (assay service)
Experimental: as §2

[25] = Pharmacokinetics study in mice; format: in vivo, ICR mice; details: for AUC(0-t) / Cmax / Tmax / clearance / half-life / bioavailability: both sexes, ICR, mouse, plasma
[26] = target: T15, CDK6/CycD1 (Homo sapiens, UniProt Q00534); experiment: CDK family panel, ADP-Glo; format: biochemical
T15 construct: ICE Bioscience Inc. (assay service)
Experimental: as §3

[27] = target: T16, TAOK3 (Homo sapiens, UniProt Q9H2K8); experiment: ADP-Glo assay, TAOK3; format: biochemical; details: read-out: IC50 against TAOK3
T16 construct: ICE Bioscience Inc. (assay service)

[28] = intravenous, i.v. 2.5 mg/kg (Table S5, intraperitoneal study)

T9 sequence (Q00535 whole entry, species assumed): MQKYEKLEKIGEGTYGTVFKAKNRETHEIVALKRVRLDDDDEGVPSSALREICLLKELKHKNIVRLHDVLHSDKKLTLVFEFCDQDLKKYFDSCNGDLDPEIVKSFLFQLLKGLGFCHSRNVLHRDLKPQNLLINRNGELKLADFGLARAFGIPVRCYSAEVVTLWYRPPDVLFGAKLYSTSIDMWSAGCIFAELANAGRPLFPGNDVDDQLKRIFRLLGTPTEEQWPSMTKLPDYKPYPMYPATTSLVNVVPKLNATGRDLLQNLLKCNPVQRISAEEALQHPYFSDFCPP
T9 sequence (Q15078 whole entry partner, species assumed): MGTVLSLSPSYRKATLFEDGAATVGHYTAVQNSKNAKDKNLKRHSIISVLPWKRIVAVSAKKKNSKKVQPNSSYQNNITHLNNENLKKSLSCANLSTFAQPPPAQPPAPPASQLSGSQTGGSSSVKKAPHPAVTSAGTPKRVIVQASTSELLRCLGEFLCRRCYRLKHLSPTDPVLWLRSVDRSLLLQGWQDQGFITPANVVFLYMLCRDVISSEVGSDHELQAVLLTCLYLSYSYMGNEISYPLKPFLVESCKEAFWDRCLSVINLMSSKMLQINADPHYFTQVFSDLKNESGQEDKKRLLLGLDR
T13 sequence (Q00536 whole entry, species assumed): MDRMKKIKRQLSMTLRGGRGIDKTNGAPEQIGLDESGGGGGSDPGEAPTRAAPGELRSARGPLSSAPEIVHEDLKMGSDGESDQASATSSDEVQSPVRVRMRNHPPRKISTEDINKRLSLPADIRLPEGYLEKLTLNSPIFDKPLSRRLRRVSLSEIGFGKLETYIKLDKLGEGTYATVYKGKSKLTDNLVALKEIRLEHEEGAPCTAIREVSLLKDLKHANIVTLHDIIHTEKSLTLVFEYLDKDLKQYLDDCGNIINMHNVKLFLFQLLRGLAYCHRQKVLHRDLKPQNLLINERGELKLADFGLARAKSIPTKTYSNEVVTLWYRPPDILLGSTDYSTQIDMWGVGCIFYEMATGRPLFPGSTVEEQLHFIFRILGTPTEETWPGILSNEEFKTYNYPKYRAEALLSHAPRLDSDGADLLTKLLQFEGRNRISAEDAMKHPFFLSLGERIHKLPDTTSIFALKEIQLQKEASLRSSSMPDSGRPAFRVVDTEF
T13 sequence (Q8ND76 whole entry partner, species assumed): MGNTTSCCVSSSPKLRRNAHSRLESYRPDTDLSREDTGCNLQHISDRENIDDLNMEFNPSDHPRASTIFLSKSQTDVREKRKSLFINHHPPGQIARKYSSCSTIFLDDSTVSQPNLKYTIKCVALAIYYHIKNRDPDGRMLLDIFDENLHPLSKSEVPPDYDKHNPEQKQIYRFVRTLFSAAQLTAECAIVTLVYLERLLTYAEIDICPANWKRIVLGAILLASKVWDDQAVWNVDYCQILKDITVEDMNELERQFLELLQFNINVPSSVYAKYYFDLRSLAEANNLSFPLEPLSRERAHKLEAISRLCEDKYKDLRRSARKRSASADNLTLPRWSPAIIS
T2 sequence (O94921 whole entry, species assumed): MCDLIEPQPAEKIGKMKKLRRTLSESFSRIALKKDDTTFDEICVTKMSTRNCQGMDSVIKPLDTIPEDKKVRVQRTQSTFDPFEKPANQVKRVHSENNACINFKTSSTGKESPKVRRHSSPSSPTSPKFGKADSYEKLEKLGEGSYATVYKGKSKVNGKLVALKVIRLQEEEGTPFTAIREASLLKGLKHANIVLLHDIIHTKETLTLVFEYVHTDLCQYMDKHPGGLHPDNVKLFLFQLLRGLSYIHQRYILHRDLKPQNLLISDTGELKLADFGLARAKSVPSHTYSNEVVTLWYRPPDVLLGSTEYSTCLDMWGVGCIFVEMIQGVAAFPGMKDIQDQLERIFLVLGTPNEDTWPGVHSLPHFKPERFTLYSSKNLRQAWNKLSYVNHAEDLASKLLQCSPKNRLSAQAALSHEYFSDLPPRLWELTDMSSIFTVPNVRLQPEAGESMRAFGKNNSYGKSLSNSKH
T2 sequence (Q8ND76 whole entry partner, species assumed): as the sequence (Q8ND76 whole entry partner, species assumed) above
T10 sequence (Q00526 whole entry, species assumed): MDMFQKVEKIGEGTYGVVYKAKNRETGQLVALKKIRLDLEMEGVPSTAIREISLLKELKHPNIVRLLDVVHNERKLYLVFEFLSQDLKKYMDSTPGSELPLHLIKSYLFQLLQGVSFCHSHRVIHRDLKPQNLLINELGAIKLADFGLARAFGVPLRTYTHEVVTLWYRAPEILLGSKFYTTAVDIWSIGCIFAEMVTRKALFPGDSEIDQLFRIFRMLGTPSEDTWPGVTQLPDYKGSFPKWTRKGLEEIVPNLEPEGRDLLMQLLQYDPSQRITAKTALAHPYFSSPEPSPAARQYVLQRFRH
T10 sequence (P24863 whole entry partner, species assumed): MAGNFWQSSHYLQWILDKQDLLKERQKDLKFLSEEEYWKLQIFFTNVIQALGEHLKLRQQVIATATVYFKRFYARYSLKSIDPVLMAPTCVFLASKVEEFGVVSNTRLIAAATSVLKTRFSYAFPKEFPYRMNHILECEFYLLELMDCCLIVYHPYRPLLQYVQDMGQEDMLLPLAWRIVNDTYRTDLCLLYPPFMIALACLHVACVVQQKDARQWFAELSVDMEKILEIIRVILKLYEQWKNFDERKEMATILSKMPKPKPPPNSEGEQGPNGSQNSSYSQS
T8 sequence (Q96Q40 whole entry, species assumed): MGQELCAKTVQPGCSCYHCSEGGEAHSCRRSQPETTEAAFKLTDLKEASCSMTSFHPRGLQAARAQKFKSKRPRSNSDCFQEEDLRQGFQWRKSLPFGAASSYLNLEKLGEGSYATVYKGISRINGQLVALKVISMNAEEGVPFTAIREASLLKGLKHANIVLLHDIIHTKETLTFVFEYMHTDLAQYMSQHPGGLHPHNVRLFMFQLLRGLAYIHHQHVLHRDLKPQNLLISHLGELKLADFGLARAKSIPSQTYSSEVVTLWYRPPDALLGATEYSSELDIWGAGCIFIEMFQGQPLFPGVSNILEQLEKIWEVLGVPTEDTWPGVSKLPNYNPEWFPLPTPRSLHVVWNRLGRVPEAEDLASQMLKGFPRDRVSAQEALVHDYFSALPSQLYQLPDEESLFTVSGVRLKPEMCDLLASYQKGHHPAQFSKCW
T8 sequence (Q8ND76 whole entry partner, species assumed): as the sequence (Q8ND76 whole entry partner, species assumed) above
T3 sequence (P11802 whole entry, species assumed): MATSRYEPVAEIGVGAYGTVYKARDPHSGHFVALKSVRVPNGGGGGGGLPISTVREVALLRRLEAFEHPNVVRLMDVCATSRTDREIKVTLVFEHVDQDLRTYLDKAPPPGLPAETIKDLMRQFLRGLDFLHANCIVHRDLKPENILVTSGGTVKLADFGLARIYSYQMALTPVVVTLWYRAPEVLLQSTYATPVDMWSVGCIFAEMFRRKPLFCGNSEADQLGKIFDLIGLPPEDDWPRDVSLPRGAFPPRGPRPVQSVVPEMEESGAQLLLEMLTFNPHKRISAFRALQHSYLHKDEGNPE
T3 sequence (P24385 whole entry partner, species assumed): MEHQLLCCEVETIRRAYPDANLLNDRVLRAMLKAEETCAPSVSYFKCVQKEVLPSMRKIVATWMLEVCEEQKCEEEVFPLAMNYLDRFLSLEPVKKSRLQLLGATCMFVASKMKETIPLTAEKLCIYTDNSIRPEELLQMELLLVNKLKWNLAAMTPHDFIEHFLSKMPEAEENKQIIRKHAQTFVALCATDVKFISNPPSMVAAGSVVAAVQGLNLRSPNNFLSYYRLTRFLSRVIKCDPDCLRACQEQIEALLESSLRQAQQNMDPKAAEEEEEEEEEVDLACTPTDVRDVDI
T16 sequence (Q9H2K8 whole entry, species assumed): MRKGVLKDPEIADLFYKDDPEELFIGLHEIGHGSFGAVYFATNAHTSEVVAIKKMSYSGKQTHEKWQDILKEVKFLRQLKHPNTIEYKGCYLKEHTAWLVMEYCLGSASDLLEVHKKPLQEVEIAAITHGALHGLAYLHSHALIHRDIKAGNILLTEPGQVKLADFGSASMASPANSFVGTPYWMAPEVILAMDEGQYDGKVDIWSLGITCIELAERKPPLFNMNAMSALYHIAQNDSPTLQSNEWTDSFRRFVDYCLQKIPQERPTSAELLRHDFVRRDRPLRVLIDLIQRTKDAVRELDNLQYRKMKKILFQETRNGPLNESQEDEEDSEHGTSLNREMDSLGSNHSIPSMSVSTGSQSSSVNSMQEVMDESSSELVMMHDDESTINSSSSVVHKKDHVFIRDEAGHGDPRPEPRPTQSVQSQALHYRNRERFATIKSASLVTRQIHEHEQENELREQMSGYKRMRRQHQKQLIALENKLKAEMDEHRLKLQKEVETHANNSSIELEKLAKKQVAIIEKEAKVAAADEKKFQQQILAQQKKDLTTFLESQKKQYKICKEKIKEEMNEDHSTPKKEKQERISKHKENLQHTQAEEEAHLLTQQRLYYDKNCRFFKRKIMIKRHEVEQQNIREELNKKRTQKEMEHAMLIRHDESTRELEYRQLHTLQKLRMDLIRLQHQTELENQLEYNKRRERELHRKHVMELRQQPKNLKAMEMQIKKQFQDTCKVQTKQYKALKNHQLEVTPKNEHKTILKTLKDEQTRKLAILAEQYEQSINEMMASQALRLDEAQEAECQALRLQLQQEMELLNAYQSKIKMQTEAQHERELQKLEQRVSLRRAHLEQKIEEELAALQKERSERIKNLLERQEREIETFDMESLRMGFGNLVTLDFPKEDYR
T15 sequence (Q00534 whole entry, species assumed): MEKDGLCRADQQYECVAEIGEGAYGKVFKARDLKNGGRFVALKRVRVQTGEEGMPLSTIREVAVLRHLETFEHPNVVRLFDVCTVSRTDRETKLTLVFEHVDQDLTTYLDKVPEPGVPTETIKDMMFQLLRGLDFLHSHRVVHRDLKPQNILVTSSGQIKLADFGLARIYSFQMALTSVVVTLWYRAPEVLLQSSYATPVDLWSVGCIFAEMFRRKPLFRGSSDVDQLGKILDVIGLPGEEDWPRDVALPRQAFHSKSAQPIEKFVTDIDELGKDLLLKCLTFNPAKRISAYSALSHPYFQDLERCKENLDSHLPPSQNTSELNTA
T15 sequence (P24385 whole entry partner, species assumed): as the sequence (P24385 whole entry partner, species assumed) above

C=CC(=O)Nc1cc(N(C(=O)NCc2ccccc2)[C@H]2CC[C@H](Nc3ccc(C#N)cn3)CC2)ccc1N1CCC(N(C)C)CC1 [YJZ5118, N-(5-(3-benzyl-1-((1r,4r)-4-((5-cyanopyridin-2-yl)amino)cyclohexyl)ureido)-2-(4-(dimethylamino)piperidin-1-yl)phenyl)acrylamide]
sensitivity of normal and non-neoplastic cells [1]: much lower sensitive | IC50 [2]: > 10000 nM | IC50 [3]: > 10000 nM | IC50 [4]: < 0.04 µM | IC50 [5]: < 0.04 µM | IC50 [6]: < 0.04 µM | IC50 [7]: < 0.04 µM | IC50 [8]: < 0.04 µM | IC50 [9]: < 0.04 µM | IC50 [10]: 3390 nM | IC50 [11]: > 10000 nM | IC50 [12]: > 10000 nM | apoptosis rate [13]: 28.5% | IC50 [14]: > 10000 nM | IC50 [15]: > 10000 nM | IC50 [16]: > 10000 nM | IC50 ([17]; Homo sapiens, VCaP, 120 h): < 40 nM | IC50 ([17]; listed as 14k (YJZ5118)): 23.7 nM | IC50 [18]: > 10000 nM | IC50 [19]: > 10000 nM | cell growth inhibitory effect after washout [20]: maintained potent antiproliferative activity | IC50 [21]: 7160 nM | IC50 [22]: > 10000 nM | IC50 [23]: > 10000 nM | IC50 [24]: 2260 nM | AUC(0-t) [25, 28]: 1660 ng·h/mL | Cmax [25, 28]: 3310 ng/mL | Tmax [25, 28]: 0.08 h | clearance [25, 28]: 25.6 mL/min/kg | half-life [25, 28]: 1.21 h | bioavailability ([25]; ip, 2.5 mg/kg, i.p. 2.5 mg/kg, read-out: F): 113% | AUC(0-t) ([25]; ip, i.p. 2.5 mg/kg): 1860 ng·h/mL | Cmax ([25]; ip, i.p. 2.5 mg/kg): 1580 ng/mL | Tmax ([25]; ip, i.p. 2.5 mg/kg): 0.33 h | half-life ([25]; ip, i.p. 2.5 mg/kg): 1.46 h | clearance ([25]; iv, i.v. 2 mg/kg): 28.3 mL/min/kg | AUC(0-t) ([25]; iv, i.v. 2.5 mg/kg (Figure 3A)): 1580 ng·h/mL | Cmax ([25]; iv, i.v. 2.5 mg/kg (Figure 3A)): 2810 ng/mL | Tmax ([25]; iv, i.v. 2.5 mg/kg (Figure 3A)): 0.08 h | clearance ([25]; iv, i.v. 2.5 mg/kg (Figure 3A)): 28.3 mL/min/kg | half-life ([25]; iv, i.v. 2.5 mg/kg (Figure 3A)): 1.29 h | bioavailability ([25]; po, 10 mg/kg, p.o. 10 mg/kg, read-out: F (oral bioavailability)): 35.5% | AUC(0-t) ([25]; po, p.o. 10 mg/kg): 2240 ng·h/mL | Cmax ([25]; po, p.o. 10 mg/kg): 639 ng/mL | Tmax ([25]; po, p.o. 10 mg/kg): 1.5 h | half-life ([25]; po, p.o. 10 mg/kg): 2.32 h | clearance rate, times lower than that of 14h ([25]; i.v.): 4 time | F (oral bioavailability) ([25]; p.o. 10 mg/kg, 10 mg/kg): 35.5% | IC50 [26]: 4480 nM | IC50 [27]: > 10 µM
